What was measured:
Type in all cases: cell-based, human
PC-3 cells [1] = experiment: Dual Sensor: MitoCasp Assay in PC-3 prostate cancer cells
From the text: (§1) Techniques to assay enzymatic and signaling processes involved in apoptosis have been developed as standard protocols. One example of an early step in apoptosis, is the release of cytochrome C from mitochondria and the activation of caspase-3. Induction of the caspases (a series of cytosolic proteases) is one of the most consistently observed features of apoptosis. Caspases are a family of proteolytic enzymes that transmit the apoptotic signal using a proteolytic cascade. […] Caspases 3 and 7 are effector caspases, central to the caspase cascade pathways. In particular, caspase-3 plays a central role in the process. When caspases are activated, they cleave target proteins; one of the most important of these is poly-(ADP-ribose) polymerase (PARP), which is a protein located in the nucleus. Therefore, assays detecting release of cytochrome C, detecting caspase-3 activity and detecting PARP degradation are effective determinants of apoptosis. The loss of mitochondrial membrane potential is known to occur during apoptosis. To analyze mitochondrial membrane potential, a cationic dye may be used which accumulates in the mitochondria of healthy cells. Collapse of the mitochondrial membrane potential during apoptosis prevents the dye from accumulating in the mitochondria resulting in a decrease in fluorescent intensity that can be detected with flow cytometry. Dual Sensor: MitoCasp™ (Cell Technology) used herein in the Examples is an assay that measures caspase 3/7 activity and cells with decreased mitochondrial membrane potential. In this assay, caspase 3/7 activity is detected using a cell permeable carboxyfluorescein labeled caspase inhibitor, which binds covalently to active caspases 3 and 7. Cells that contain bound inhibitor are detected by an increase in fluorescence when samples are analyzed by flow cytometry.
(§2) PC-3 cells (ATCC #CRL-1435) were derived from a prostate adenocarcinoma (Kaighn et al., 1979). They were maintained in RPMI 1640 medium (Gibco) supplemented with 10% fetal bovine serum (Cansera), 100 U/mL penicillin, and 100 μg/mL streptomycin and 0.25 μg/mL amphotericin B. Cultures were maintained in medium at 37° C. with 5% CO2 and 100% relative humidity.
To harvest adherent cells, the existing medium was removed and cells were dissociated with 0.25% (w/v) trypsin-EDTA·4Na in Hank's Balanced Salt Solution (Gibco). To block the proteolytic action of the trypsin, the cells were resuspended in an excess of media containing fetal bovine serum. Cells were transferred to a 15 mL conical centrifuge tube and pelleted by centrifugation at 500×g for 5 min. Cell pellets were resuspended in media, and an aliquot of the cells were seeded into a new flask.
(§3) PC-3 cells were seeded in tissue culture flasks with regular growth medium and maintained under normal conditions. […] Following incubation under normal growth conditions for the specified time, cells were washed once with cold phosphate-buffered saline (PBS) (137 mM NaCl, 2.7 mM KCl, 4.3 mM Na2HPO4.7H2O, 1.4 mM KH2PO4) and harvested as previously described. Assays were carried out according to instructions given in kits. All Flow Cytometry was performed using a Coulter Epics XL (Beckman).
(§4) Following centrifugation at 500×g for 5 min, cell pellets were resuspended in PBS at 3.3×10^6 cells/mL. 300 μL cell suspension was mixed with 10 μL each of 30X Mitochondria Membrane Potential Dye and 30X Caspase 3/7 detection reagent. Following incubation for 60 min under normal growth conditions, cells were washed twice with 1× wash buffer and resuspended in 0.5 mL 1× wash buffer. Samples were analyzed by flow cytometry measuring the fluorescence emissions from 515 nm to 530 nm for caspase detection, and 574 nm to 600 nm for mitochondrial membrane potential detection.

CRL-2522 cells = experiment: Dual Sensor: MitoCasp Assay in CRL-2522 normal fibroblast cells
From the text: as §1, §4
CRL-2522 cells, acquired from ATCC, (American Type Culture Collection) are normal fibroblast cells that originated from human foreskin. CRL-2522 cells were maintained in RPMI 1640 medium (Gibco) supplemented with 10% fetal bovine serum (Cansera), 100 U/mL penicillin, 100 μg/mL streptomycin and 0.25 μg/mL amphotericin B. Cultures were maintained in medium at 37° C. with 5% CO2 and 100% relative humidity. […]

PC-3 cells [2] = experiment: Vybrant Apoptosis Assay Kit #2 in PC-3 cells
From the text: Another apoptotic assay is the Annexin-V detection of extracellular phosphatidlyserine (PS). Normally, phosphatidylserine is localized on the inner membrane of the plasmalemma. However, during the early stages of apoptosis, externalization of PS takes place. Annexin-V is a calcium binding protein which binds to PS and can be observed with annexin-V-FITC staining by flow cytometry (Martin, et al., 1995). Alexa Fluor® 488-labeled Annexin V, which has a high affinity for PS, is used to detect apoptotic cells by binding to PS on the outer surface of the cell. Propidium iodide staining is used concurrently to detect dead cells. When cells are analyzed by flow cytometry apoptotic cells show Annexin V staining, late apoptotic cells show PI and Annexin V staining, and dead cells show only PI staining. The Vybrant® Apoptosis Assay Kit #2 (Molecular Probes™) used herein in the Examples is an assay that measures Annexin-V positive cells.
as §2, §3

[3] = CRL-2522 cells, 2.5 μM PC1448, 37 hr
[4] = CRL-2522 cells, 5.0 μM PC1448, 37 hr
[5] = CRL-2522 cells, 10.0 μM PC1448, 37 hr
[6] = CRL-2522 cells, 14 μM PC1448, 10 hr
[7] = CRL-2522 cells, 14 μM PC1448, 20 hr
[8] = CRL-2522 cells, 14 μM PC1448, 30 hr
[9] = CRL-2522 cells, 15.0 μM PC1448, 37 hr

Segetoside H [PC1448]
Cells with caspase 3/7 activity (PC-3 cells [1]; 2.5 μM PC1448, 37 hr): 5.6% | Cells with decreased mitochondrial membrane potential (PC-3 cells [1]; 2.5 μM PC1448, 37 hr): 6.0% | Cells with caspase 3/7 activity (PC-3 cells [1]; 5.0 μM PC1448, 37 hr): 35.1% | Cells with decreased mitochondrial membrane potential (PC-3 cells [1]; 5.0 μM PC1448, 37 hr): 9.9% | Cells with caspase 3/7 activity (PC-3 cells [1]; 7 μM PC1448, 26 hr): 77.8% | Cells with decreased mitochondrial membrane potential (PC-3 cells [1]; 7 μM PC1448, 26 hr): 24.8% | Cells with caspase 3/7 activity (PC-3 cells [1]; 10 μM PC1448, 26 hr): 86.2% | Cells with decreased mitochondrial membrane potential (PC-3 cells [1]; 10 μM PC1448, 26 hr): 30.8% | Cells with caspase 3/7 activity (PC-3 cells [1]; 10.0 μM PC1448, 37 hr): 76.8% | Cells with decreased mitochondrial membrane potential (PC-3 cells [1]; 10.0 μM PC1448, 37 hr): 26.7% | Cells with caspase 3/7 activity (PC-3 cells [1]; 14 μM PC1448, 05 hr): 13.0% | Cells with decreased mitochondrial membrane potential (PC-3 cells [1]; 14 μM PC1448, 05 hr): 38.0% | Cells with caspase 3/7 activity (PC-3 cells [1]; 14 μM PC1448, 10 hr): 29.2% | Cells with decreased mitochondrial membrane potential (PC-3 cells [1]; 14 μM PC1448, 10 hr): 72.5% | Cells with caspase 3/7 activity (PC-3 cells [1]; 14 μM PC1448, 15 hr): 42.9% | Cells with decreased mitochondrial membrane potential (PC-3 cells [1]; 14 μM PC1448, 15 hr): 89.4% | Cells with caspase 3/7 activity (PC-3 cells [1]; 14 μM PC1448, 20 hr): 57.2% | Cells with decreased mitochondrial membrane potential (PC-3 cells [1]; 14 μM PC1448, 20 hr): 94.1% | Increase in cells with a decreased mitochondrial membrane potential vs untreated (PC-3 cells [1]; 14 μM PC1448, 20 hr (4.5% to 94.1%)): ~20 fold | Cells with caspase 3/7 activity (PC-3 cells [1]; 14 μM PC1448, 26 hr): 84.0% | Cells with decreased mitochondrial membrane potential (PC-3 cells [1]; 14 μM PC1448, 26 hr): 52.0% | Increase in cells with measurable caspase 3/7 activity vs untreated (PC-3 cells [1]; 14 μM PC1448, over the 20 hr exposure period): approximately a doubling | Cells with caspase 3/7 activity (PC-3 cells [1]; 15.0 μM PC1448, 37 hr): 72.9% | Cells with decreased mitochondrial membrane potential (PC-3 cells [1]; 15.0 μM PC1448, 37 hr): 32.3% | Cells with caspase 3/7 activity (PC-3 cells [1]; 17 μM PC1448, 26 hr): 77.7% | Cells with decreased mitochondrial membrane potential (PC-3 cells [1]; 17 μM PC1448, 26 hr): 41.9% | Concentration of greatest effect on apoptosis (PC-3 cells [1]; 37 hours): above 10 μM | Induction of apoptosis at concentrations as low as (PC-3 cells [1]; 37 hours): 5.0 µM | Concentration with the greatest change in cells with decreased mitochondrial membrane potential (PC-3 cells [1]; PC1448 7-17 μM, 26 hr): 14 µM | Concentration with the largest increase in caspase 3/7 activity (PC-3 cells [1]; PC1448 7-17 μM, 26 hr): 10 µM | Increase in caspase 3/7 activity vs untreated (PC-3 cells [1]; PC1448 7-17 μM, 26 hr, all treated cells): 9 fold | Cells with caspase 3/7 activity (CRL-2522 cells; [3]): 1.7% | Cells with decreased mitochondrial membrane potential (CRL-2522 cells; [3]): 5.6% | Cells with caspase 3/7 activity (CRL-2522 cells; [4]): 4.0% | Cells with decreased mitochondrial membrane potential (CRL-2522 cells; [4]): 5.0% | Cells with caspase 3/7 activity (CRL-2522 cells; [5]): 21.9% | Cells with decreased mitochondrial membrane potential (CRL-2522 cells; [5]): 4.6% | Effect on apoptosis (in words) (CRL-2522 cells; CRL-2522 cells, 14 μM PC1448, 10-30 hr): no significant effect on apoptosis | Cells with caspase 3/7 activity (CRL-2522 cells; [6]): 3.7% | Cells with decreased mitochondrial membrane potential (CRL-2522 cells; [6]): 1.4% | Cells with caspase 3/7 activity (CRL-2522 cells; [7]): 5.5% | Cells with decreased mitochondrial membrane potential (CRL-2522 cells; [7]): 1.4% | Cells with caspase 3/7 activity (CRL-2522 cells; [8]): 32.8% | Cells with decreased mitochondrial membrane potential (CRL-2522 cells; [8]): 0.8% | Cells with caspase 3/7 activity (CRL-2522 cells; [9]): 9.4% | Cells with decreased mitochondrial membrane potential (CRL-2522 cells; [9]): 18.5% | Cells with Caspase 3/7 activity and decreased mitochondrial membrane potential vs untreated (in words) (CRL-2522 cells; CRL-2522 cells, PC1448 15.0-2.5 μM, 37 hours): variable increase | Apoptosis in non-cancerous cell line (summary in words) (CRL-2522 cells; fibroblast cell line CRL-2522, summary of the Examples): no or little apoptosis | Annexin-V positive cells (PC-3 cells [2]; 14 μM PC1448, 06 hr): 12.4% | Annexin-V positive cells (PC-3 cells [2]; 14 μM PC1448, 16 hr): 28.3% | Annexin-V positive cells (PC-3 cells [2]; 14 μM PC1448, 24 hr): 34.7% | Increase in Annexin V positive cells vs untreated (PC-3 cells [2]; 14 μM PC1448, 24 hr): three fold

From patent US20110230430A1, “SAPONIN EXTRACT FROM SAPONARIA SPP. AND USES THEREOF” (NATIONAL RESEARCH COUNCIL OF CANADA, priority 2008, published 2011)
